In patent US9789181B2, “PAN-DR binding polypeptides and uses thereof” (Epimmune Inc., priority 2009, dated 2017):
Read-outs that look alike come from different tables or passages of the source. Where no end group is shown, it is not given here.

Key:
[1] = tested on: crude extract from E. coli; assay: In situ protease assay: TNFα variants in E. coli crude extract, SDS-PAGE and Western blot; format: in vitro ADME; conditions: sequence inserted into loop EF of human TNFα, procedure of Example 2
Description: In order to test the protease resistance of selected, good binding PADRE analogues, their sequences were inserted by cloning techniques into a loop (loop EF) in human TNFα. Cell-free protein crude extract from E. coli expressing the modified TNFα molecules was prepared and proteolytic cleavage within the PADRE analogue sequences was analysed by SDS-PAGE followed by immunoblotting.
A synthetic cDNA encoding TNF (Y87S) was used as template. Oligonucleotides encoding PADRE or PADRE analogues were inserted into the template between A185 and E186 by PCR (cf. above). Resulting cDNAs were cloned into pET28b+(Novagen) and transformed into E. coli strain HMS 174. For recombinant expression, the resulting E. coli strains were cultured in fermentors in a defined medium at 37° C. Induction of recombinant expression was initiated by the addition of 1 mM of IPTG and temperature was lowered to 25° C. Cultures were harvested at 4, 8 or 24 h post-IPTG induction. TNFα variants were purified to >90% homogeneity by affinity chromatography using a TNFα specific monoclonal antibody as described in Nielsen et al., (2004), J Biol. Chem. 279:33593-33600. The purified TNFα variants were characterized by MALDI-TOF mass spectrometry to verify their identity and integrity.
In Situ Protease Assay: Analysis of the Protease Resistance of TNF-α Variants Using Western Blot
Aliquots (1 ml) of E. coli cell cultures, expressing the various TNF-α variants to be tested, were centrifuged (5000 g/5 min/5° C.) and the culture medium was discarded. Cell pellets were resuspended in 1 ml of 20 mM Bis-Tris, pH 6.0. Cell disruption was achieved by sonication (4×15 sec at an amplitude of 11 μm with 20 sec pauses between each sonication round). The resulting suspensions were centrifuged (20000 g/30 min/8° C.) and the supernatants (crude extracts) were transferred to fresh tubes. Crude extracts were then analysed for protein content using a Bradford protein assay (Biorad). Equivalent amounts of proteins were loaded onto 4-12% NuPAGE gels (Novex). After SDS-PAGE, proteins were transferred onto nitrocellulose membrane by semi-dry blotting. For immunoreaction, incubation with rabbit TNFα antiserum (1 h; dilution 1:10 000) and with horse radish peroxidase-conjugated secondary antibody (Dako P448) were carried out in Tris 50 mM, NaCl 150 mM, EDTA 5 mM, Igepal 0.1%, gelatine 0.5%. Detection was with ECL™ reagents (GE Healthcare).

[2] = biological target: HLA DRB1 *0101 (Homo sapiens, UniProt P01903+P01911, A100R/D57E/F55L/F60I/F76Y/I96L/L162R/M171V/P40L/Q125E/R42F/V115G/Y59C); assay: IC50nM to purified HLA | DRB1 *0101
Description: (§1) Table printed on a drawing sheet, FIG. 1 (contd.)
Head of the field: IC50nM to purified HLA | DRB1 *0101
(§2) First copying reader's note: Continued from the preceding sheet of FIG. 1; decimal commas are used, the analog names give the substituted residues and positions in PADRE, and some values are printed in italics or bold and some SEQ ID NOs bold and underlined without a legend on this sheet.
Where the first naming reader finds the target: head: IC50nM to purified HLA | DRB1 *0101

[3] = biological target: HLA DRB1 *0301 (Homo sapiens, UniProt P01903+P01911, A100K/A102G/A103R/A169T/F55Y/I96L/K41T/L162R/M171V/P40S/Q125H/Q178H/Q39Y/R42S/S66N/T106N/T262R/W38E/Y61H); assay: IC50nM to purified HLA | DRB1 *0301
HLA DRB1 *0301, sequence (P01903 26-254 limits assumed, other chains not shown): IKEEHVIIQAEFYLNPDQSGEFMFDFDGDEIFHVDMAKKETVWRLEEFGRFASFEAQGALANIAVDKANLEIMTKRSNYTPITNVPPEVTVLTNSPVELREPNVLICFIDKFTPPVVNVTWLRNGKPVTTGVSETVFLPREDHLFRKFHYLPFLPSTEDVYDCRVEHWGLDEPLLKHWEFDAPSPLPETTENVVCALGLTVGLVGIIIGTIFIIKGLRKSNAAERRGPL
Description: as §1
Head of the field: IC50nM to purified HLA | DRB1 *0301
as §2
Where the first naming reader finds the target: head: IC50nM to purified HLA | DRB1 *0301

[4] = biological target: HLA DRB1 *0401 (Homo sapiens, UniProt P01903+P01911, A100K/A169T/F76Y/I96L/K127E/L162R/M171V/N62H/P40V/Q125Y/R42H/S133A/S149N/S66Y/V115G/V209L/W38E); assay: IC50nM to purified HLA | DRB1 *0401
Description: as §1
Head of the field: IC50nM to purified HLA | DRB1 *0401
as §2
Where the first naming reader finds the target: head: IC50nM to purified HLA | DRB1 *0401

[5] = biological target: T1, HLA DRB1 *0802 (Homo sapiens, UniProt P01903+P01911, A100R/A103L/A169T/F76Y/H45Y/I96F/K41T/L162R/M171V/P40S/Q125H/Q178H/Q39Y/Q99D/R218S/R42G/S66Y/V115G/W38E); assay: IC50nM to purified HLA | DRB1 *0802
Description: as §1
(§3) Head of the field: IC50nM to purified HLA | DRB1 *0802
as §2
(§4) Where the first naming reader finds the target: head: IC50nM to purified HLA | DRB1 *0802

[6] = biological target: HLA DRB1 *0901 (Homo sapiens, UniProt P01903+P01911, A100R/A103E/D57H/D86V/F55Y/F60I/F76Y/I96F/K127E/L162R/M171V/P40D/Q125H/Q99R/R33Q/R42F/S133A/S66N/T210M/V115G/W38K/Y107V/Y59G/Y89S); assay: IC50nM to purified HLA | DRB1 *0901
Description: as §1
Head of the field: IC50nM to purified HLA | DRB1 *0901
as §2
Where the first naming reader finds the target: head: IC50nM to purified HLA | DRB1 *0901

[7] = biological target: HLA DRB1 *1101 (Homo sapiens, UniProt P01903+P01911, A100R/A169T/A87E/I96F/K41T/L162R/M171V/P40S/Q125H/Q178H/Q39Y/Q99D/R42S/S66Y/T262R/V115G/W38E); assay: IC50nM to purified HLA | DRB1 *1101
HLA DRB1 *1101, sequence (P01903 26-254 limits assumed, other chains not shown): as above
Description: as §1
Head of the field: IC50nM to purified HLA | DRB1 *1101
as §2
Where the first naming reader finds the target: head: IC50nM to purified HLA | DRB1 *1101

[8] = biological target: T2, HLA DRB1 *0405 (Homo sapiens, UniProt P01903+P01911, A100R/A169T/D86S/F76Y/I96L/K127E/L162R/M171V/N62H/P40V/Q125Y/R42H/S133A/S149N/S66Y/V115G/V209L/W38E); assay: IC50nM to purified HLA | DRB1 *0405
Description: as §1
(§5) Head of the field: IC50nM to purified HLA | DRB1 *0405
as §2
(§6) Where the first naming reader finds the target: head: IC50nM to purified HLA | DRB1 *0405

[9] = biological target: T3, HLA DRB1 *0701 (Homo sapiens, UniProt P01903+P01911, A100R/A102G/A103Q/D57E/D86V/E43K/F76Y/K127E/L162R/M171V/P40G/Q125H/Q99D/R33Q/R42Y/R54Q/S133A/S66F/T210M/V115G/Y107V/Y59L/Y89S); assay: IC50nM to purified HLA | DRB1 *0701
Description: as §1
(§7) Head of the field: IC50nM to purified HLA | DRB1 *0701
as §2
(§8) Where the first naming reader finds the target: head: IC50nM to purified HLA | DRB1 *0701

[10] = biological target: T4, HLA DRB1 *1302 (Homo sapiens, UniProt P01903+P01911, A100E/A169T/K41T/L162R/M171V/P40S/Q125H/Q178H/Q39Y/Q99D/R42S/S66N/T262R/V115G/W38E/Y61H); assay: IC50nM to purified HLA | DRB1 *1302
T4 sequence (P01903 26-254 limits assumed, other chains not shown): as above
Description: as §1
(§9) Head of the field: IC50nM to purified HLA | DRB1 *1302
as §2
(§10) Where the first naming reader finds the target: head: IC50nM to purified HLA | DRB1 *1302

[11] = biological target: HLA DRB5 *0101 (Homo sapiens, UniProt P01903+Q30154); assay: IC50nM to purified HLA | DRB5 *0101
Description: as §1
Head of the field: IC50nM to purified HLA | DRB5 *0101
as §2
Where the first naming reader finds the target: head: IC50nM to purified HLA | DRB5 *0101

[12] = biological target: T2, HLA DRB1 *0405; assay: IC50nM to purified HLA | DRB1 *0405; remark: listed apart in the source
Description: as §1, §5
(§11) First copying reader's note: Continued from an earlier sheet of FIG. 1; decimal commas as printed, analog names encode substituted residues and positions, and some values are printed in italics or bold and some SEQ ID NOs underlined without a legend on this sheet.
as §6

[13] = biological target: T3, HLA DRB1 *0701; assay: IC50nM to purified HLA | DRB1 *0701; remark: listed apart in the source
Description: as §1, §7, §11, §8

[14] = biological target: T1, HLA DRB1 *0802; assay: IC50nM to purified HLA | DRB1 *0802; remark: listed apart in the source
Description: as §1, §3, §11, §4

[15] = biological target: HLA DRB4 *0101 (Homo sapiens, UniProt P01903+P13762, G164S); assay: IC50nM to purified HLA | DRB4 *0101
HLA DRB4 *0101, sequence (P01903 26-254 limits assumed): as the sequence (P01903 26-254 limits assumed, other chains not shown) above
HLA DRB4 *0101, sequence (P13762 whole entry G164S): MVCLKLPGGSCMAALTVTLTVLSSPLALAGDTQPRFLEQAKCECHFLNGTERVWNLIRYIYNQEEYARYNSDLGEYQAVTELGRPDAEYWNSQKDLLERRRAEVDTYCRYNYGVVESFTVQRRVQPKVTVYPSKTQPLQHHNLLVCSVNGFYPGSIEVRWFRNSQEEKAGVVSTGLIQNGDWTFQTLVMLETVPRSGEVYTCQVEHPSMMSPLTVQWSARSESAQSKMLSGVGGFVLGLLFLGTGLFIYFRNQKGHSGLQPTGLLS
Description: as §1
Head of the field: IC50nM to purified HLA | DRB4 *0101
as §11
Where the first naming reader finds the target: head: IC50nM to purified HLA | DRB4 *0101

[16] = biological target: T4, HLA DRB1 *1302; assay: IC50nM to purified HLA | DRB1 *1302; remark: listed apart in the source
Description: as §1, §9, §11, §10

[17] = biological target: HLA DRB1 *1501 (Homo sapiens, UniProt P01903+P01911); assay: IC50nM to purified HLA | DRB1 *1501
Description: as §1
Head of the field: IC50nM to purified HLA | DRB1 *1501
as §11
Where the first naming reader finds the target: head: IC50nM to purified HLA | DRB1 *1501

[18] = biological target: HLA DRB1 *0404 (Homo sapiens, UniProt P01903+P01911, A100R/A169T/F76Y/I96L/K127E/L162R/M171V/N62H/P40V/Q125Y/R42H/S133A/S149N/S66Y/V209L/W38E); assay: IC50nM to purified HLA | DRB1 *0404
Description: as §1
Head of the field: IC50nM to purified HLA | DRB1 *0404
as §11
Where the first naming reader finds the target: head: IC50nM to purified HLA | DRB1 *0404

| Sequence | protease resistance of PADRE analogue sequence [1] | IC50 [2] | IC50 [3] | IC50 [4] | IC50 [5] | IC50 [6] | IC50 [7] | IC50 [8] | IC50 [9] | IC50 [10] | IC50 [11] | IC50 [12] | IC50 [13] | IC50 [14] | IC50 [15] | IC50 [16] | IC50 [17] | IC50 [18] |
| --- | --- | --- | --- | --- | --- | --- | --- | --- | --- | --- | --- | --- | --- | --- | --- | --- | --- | --- |
| AAAHFVAANTLHAAA [SEQ ID NO: 29] | increased resistance towards proteolytic degradation | 4.1 nM | 361 nM | 4.5 nM | 17 nM | 37 nM | 22 nM | 18 nM | 76 nM | 47 nM | 33 nM |  |  |  |  |  |  |  |
| AAAIFVAAWTLHAAA [SEQ ID NO: 69] | increased resistance towards proteolytic degradation |  |  |  |  |  |  |  |  |  |  | 13 nM | 78 nM | 12 nM | 84 nM | 891 nM | 9.4 nM | 3.7 nM |
